We go through 35 compounds from ChEMBL document CHEMBL1153748 (J Med Chem, 2010).

Each structure is given as a SMILES string.

The target of assay [1] is T1, Peroxisome proliferator-activated receptor gamma (Homo sapiens, UniProt P37231).
T1 sequence (P37231 whole entry): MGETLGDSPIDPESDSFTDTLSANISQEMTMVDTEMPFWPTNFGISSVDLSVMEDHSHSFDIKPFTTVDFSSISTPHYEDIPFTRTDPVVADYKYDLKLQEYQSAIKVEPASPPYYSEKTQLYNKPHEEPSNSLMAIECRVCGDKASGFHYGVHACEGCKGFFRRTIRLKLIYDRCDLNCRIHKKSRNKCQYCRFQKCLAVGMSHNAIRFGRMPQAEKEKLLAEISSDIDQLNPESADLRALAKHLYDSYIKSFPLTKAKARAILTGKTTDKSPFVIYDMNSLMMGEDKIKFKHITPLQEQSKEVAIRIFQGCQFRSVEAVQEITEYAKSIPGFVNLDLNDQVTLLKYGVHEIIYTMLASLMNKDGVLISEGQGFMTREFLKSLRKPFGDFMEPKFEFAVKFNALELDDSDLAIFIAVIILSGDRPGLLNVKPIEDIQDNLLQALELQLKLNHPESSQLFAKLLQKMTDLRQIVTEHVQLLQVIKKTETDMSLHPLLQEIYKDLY
The format is cell-based, 293T.

In assay [2] the target is T2, Peroxisome proliferator-activated receptor delta (Homo sapiens, UniProt Q03181).
T2 sequence (Q03181 whole entry): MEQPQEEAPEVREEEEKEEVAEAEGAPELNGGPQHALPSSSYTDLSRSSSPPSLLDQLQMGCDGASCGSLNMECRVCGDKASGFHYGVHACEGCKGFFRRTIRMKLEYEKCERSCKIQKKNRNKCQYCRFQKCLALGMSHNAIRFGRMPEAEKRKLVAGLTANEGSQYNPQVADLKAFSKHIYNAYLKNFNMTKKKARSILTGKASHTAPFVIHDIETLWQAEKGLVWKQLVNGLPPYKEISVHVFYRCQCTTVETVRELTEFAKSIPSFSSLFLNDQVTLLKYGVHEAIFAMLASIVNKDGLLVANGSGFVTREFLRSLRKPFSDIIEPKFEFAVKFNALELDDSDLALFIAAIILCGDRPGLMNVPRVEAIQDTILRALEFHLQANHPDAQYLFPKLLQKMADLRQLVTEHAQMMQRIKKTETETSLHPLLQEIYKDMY

Assay [3] deals with T3, Peroxisome proliferator-activated receptor alpha (Homo sapiens, UniProt Q07869).
T3 sequence (Q07869 whole entry): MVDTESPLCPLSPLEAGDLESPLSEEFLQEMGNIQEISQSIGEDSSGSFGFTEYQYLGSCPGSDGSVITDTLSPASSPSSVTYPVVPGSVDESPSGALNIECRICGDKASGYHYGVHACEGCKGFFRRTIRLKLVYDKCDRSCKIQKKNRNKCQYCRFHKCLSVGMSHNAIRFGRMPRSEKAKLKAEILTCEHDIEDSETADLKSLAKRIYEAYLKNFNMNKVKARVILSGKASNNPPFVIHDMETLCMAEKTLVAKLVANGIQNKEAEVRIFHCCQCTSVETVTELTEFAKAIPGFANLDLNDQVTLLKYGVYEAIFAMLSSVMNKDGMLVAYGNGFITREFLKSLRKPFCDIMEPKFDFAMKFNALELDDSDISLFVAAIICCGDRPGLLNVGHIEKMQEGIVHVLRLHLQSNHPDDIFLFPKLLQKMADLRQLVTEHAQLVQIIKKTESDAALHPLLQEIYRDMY
Nature of the assay: Agonist activity at human PPARalpha ligand binding domain expressed in human 293T cells co-transfected with Gal4-DBD by luciferase transactivation assay. The format is cell-based.

The EC50 is the concentration giving half of the maximal effect. Take `Cc1cc(OCc2nc(-c3ccc4[nH]c(=O)oc4c3)c(-c3ccc(OC(F)(F)F)cc3)s2)ccc1OCC(=O)O`: the figures for the EC50 in assay [1] (read-out: EC50), in assay [2] and in assay [3] (read-out: EC50) were more than 10 µM, 0.544 µM and more than 10 µM, respectively.

For `COc1ccc(-c2nc(COc3cccc(OCC(=O)O)c3)sc2-c2ccc(C(F)(F)F)cc2)cc1`, the concentration giving a half-maximal response (EC50) in assay [1] (read-out: EC50), in assay [2] and in assay [3] (read-out: EC50) was more than 10 µM in each case.

As to `Cc1cc(OCc2nc(-c3ccc(N4CCOCC4)cc3)c(-c3ccc(OC(F)(F)F)cc3)s2)ccc1OCC(=O)O`, the concentration for a half-maximal effect (EC50) was more than 10 µM in assay [1] (read-out: EC50), 0.045 µM in assay [2] and more than 10 µM in assay [3] (read-out: EC50).

Consider `COc1ccc(-c2nc(COc3ccc(OCC(=O)O)c(C)c3)sc2-c2ccc(OC)c(Cl)c2)cc1`, for which the concentration for a half-maximal effect (EC50) is more than 10 µM in assay [1] (read-out: EC50), 0.13 µM in assay [2] and more than 10 µM in assay [3] (read-out: EC50).

In the case of `COc1ccc(-c2nc(COc3ccc(OCC(=O)O)c4ccccc34)sc2-c2ccc(C(F)(F)F)cc2)cc1`, the results for the EC50 in assay [1] (read-out: EC50), in assay [2] and in assay [3] (read-out: EC50) were more than 10 µM, 2.93 µM and more than 10 µM, respectively.

With `COc1ccc(-c2nc(COc3ccc4c(CC(=O)O)cccc4c3)sc2-c2ccc(C(F)(F)F)cc2)cc1`, the 50% effective concentration (EC50) is more than 10 µM in assay [1] (read-out: EC50), 0.74 µM in assay [2] and more than 10 µM in assay [3] (read-out: EC50).

For `CCCc1cc(OCc2nc(-c3ccc(OC)cc3)c(-c3ccc(C(F)(F)F)cc3)s2)ccc1OCC(=O)O`, the EC50 in assay [1] (read-out: EC50) was more than 10 µM; in assay [2], 0.02 µM; in assay [3] (read-out: EC50), more than 10 µM.

As for `Cc1cc(OCc2nc(-c3ccc(OCC(C)C)cc3)c(-c3ccc(OC(F)(F)F)cc3)s2)ccc1OCC(=O)O`, the EC50 in assay [1] (read-out: EC50) was more than 10 µM; in assay [2], 0.063 µM; in assay [3] (read-out: EC50), more than 10 µM.

Take `Cc1cc(OCc2nc(-c3ccc(N4CCCC4)cc3)c(-c3ccc(OC(F)(F)F)cc3)s2)ccc1OCC(=O)O`: the concentration giving a half-maximal response (EC50) in assay [1] (read-out: EC50) was more than 10 µM; in assay [2], 0.41 µM; in assay [3] (read-out: EC50), more than 10 µM.

As to `COc1ccc(-c2nc(COc3ccc(OCC(=O)O)c(C)c3)oc2-c2ccc(Cl)cc2)cc1`, the EC50 in assay [1] (read-out: EC50) was more than 10 µM; in assay [2], 0.05 µM; in assay [3] (read-out: EC50), more than 10 µM.

Take `Cc1ccc(-c2csc(COc3ccc(OCC(=O)O)c(C)c3)n2)cc1`: the EC50 in assay [1] (read-out: EC50), in assay [2] and in assay [3] (read-out: EC50) was more than 10 µM throughout.

On to `Cc1cc(OCc2nc(C)c(-c3ccc(Cl)cc3)s2)ccc1OCC(=O)O`, for which the concentration giving a half-maximal response (EC50) in assay [1] (read-out: EC50) is more than 10 µM; in assay [2] it was 0.32 µM; in assay [3] (read-out: EC50), more than 10 µM.

With `COc1ccc(-c2nc(COc3ccc(OCC(=O)O)c(C)c3)sc2-c2cccc(C(F)(F)F)c2)cc1`, the EC50 in assay [1] (read-out: EC50) was more than 10 µM; in assay [2], 0.07 µM; in assay [3] (read-out: EC50) it was more than 10 µM.

For the compound `COc1ccc(-c2nc(COc3ccc(OCC(=O)O)c(C)c3)sc2-c2cnc3ccccc3c2)cc1`, the figures for the 50% effective concentration (EC50) in assay [1] (read-out: EC50), in assay [2] and in assay [3] (read-out: EC50) were more than 10 µM, 0.08 µM and more than 10 µM, respectively.

With `COc1ccc(-c2nc(COc3ccc(OCC(=O)O)c(C)c3)sc2-c2ccc(OC(F)(F)F)cc2)cc1`, the EC50 was more than 10 µM in assay [1] (read-out: EC50), 0.02 µM in assay [2] and more than 10 µM in assay [3] (read-out: EC50).

Take `COc1ccc(-c2nc(COc3ccc(OCC(=O)O)c(C)c3)sc2-c2ccccc2C(F)(F)F)cc1`: the 50% effective concentration (EC50) in assay [1] (read-out: EC50), in assay [2] and in assay [3] (read-out: EC50) was more than 10 µM each time.

Consider `CCCc1ccc(-c2oc(COc3ccc(OCC(=O)O)c(C)c3)nc2-c2ccc(OC)cc2)cc1`, for which the concentration for a half-maximal effect (EC50) in assay [1] (read-out: EC50) was more than 10 µM; in assay [2], 0.01 µM; in assay [3] (read-out: EC50), more than 10 µM.

With `COc1ccc(-c2nc(COc3ccccc3OCC(=O)O)sc2-c2ccc(C(F)(F)F)cc2)cc1`, the concentration for a half-maximal effect (EC50) in assay [1] (read-out: EC50), in assay [2] and in assay [3] (read-out: EC50) was more than 10 µM in each case.

Take `COc1ccc(-c2nc(COc3ccc(OCC(=O)O)c(C)c3)sc2-c2ccc(-c3ccccc3)cc2)cc1`: the results for the half-maximal effective concentration (EC50) in assay [1] (read-out: EC50), in assay [2] and in assay [3] (read-out: EC50) were more than 10 µM, 0.01 µM and more than 10 µM, respectively.

Regarding `COc1ccc(-c2nc(COc3ccc(OCC(=O)O)c(C)c3)sc2-c2ccc(-c3ccccc3)c(C(F)(F)F)c2)cc1`, the EC50 in assay [1] (read-out: EC50) is more than 10 µM; in assay [2], 0.25 µM; in assay [3] (read-out: EC50) it was more than 10 µM.

Take `COc1ccc(-c2nc(COc3ccc(OCC(=O)O)c(C)c3)oc2-c2cnc3ccccc3c2)cc1`: the figures for the EC50 in assay [1] (read-out: EC50), in assay [2] and in assay [3] (read-out: EC50) were more than 10 µM, 0.11 µM and more than 10 µM, respectively.

In the case of `Cc1cc(OCc2nc(-c3cccnc3)c(-c3ccc(OC(F)(F)F)cc3)s2)ccc1OCC(=O)O`, the EC50 was more than 10 µM in assay [1] (read-out: EC50), 0.068 µM in assay [2] and more than 10 µM in assay [3] (read-out: EC50).

As for `CCN(CC)c1ccc(-c2nc(COc3ccc(OCC(=O)O)c(C)c3)sc2-c2ccc(OC(F)(F)F)cc2)cc1`, the concentration for a half-maximal effect (EC50) in assay [1] (read-out: EC50) was more than 10 µM; in assay [2], 0.03 µM; in assay [3] (read-out: EC50), more than 10 µM.

Regarding `COc1ccc(-c2nc(COc3ccc(OCC(=O)O)c(C)c3)sc2-c2ccc(OC(F)(F)F)cc2)cc1F`, the results for the EC50 in assay [1] (read-out: EC50), in assay [2] and in assay [3] (read-out: EC50) were more than 10 µM, 0.056 µM and more than 10 µM, respectively.

On to `Cc1ccc(-c2sc(COc3ccc(OCC(=O)O)c(C)c3)nc2C)cc1`, for which the figures for the concentration giving a half-maximal response (EC50) in assay [1] (read-out: EC50), in assay [2] and in assay [3] (read-out: EC50) were more than 10 µM, 6.32 µM and more than 10 µM, respectively.

As to `Cc1cc(CN(CC(=O)Nc2ccc(Cl)cc2Cl)C2CCCCC2)ccc1OCC(=O)O`, the results for the half-maximal effective concentration (EC50) entry in assay [1] (293t), in assay [2] and in assay [3] (293t) were “Not Active”, 0.003 µM and “Not Active”, respectively.

In the case of `Cc1cc(OCc2nc(-c3ccc(-c4ccccc4)cc3)c(-c3ccc(-c4ccccc4)cc3)s2)ccc1OCC(=O)O`, the half-maximal effective concentration (EC50) in assay [1] (read-out: EC50) is more than 10 µM; in assay [2], 0.13 µM; in assay [3] (read-out: EC50) it was more than 10 µM.

As to `COc1ccc(-c2nc(COc3ccc4c(c3)CC(C(=O)O)O4)sc2-c2ccc(C(F)(F)F)cc2)cc1` (stereo not given), the results for the EC50 in assay [1] (read-out: EC50), in assay [2] and in assay [3] (read-out: EC50) were more than 10 µM, 0.46 µM and more than 10 µM, respectively.

Turning to `Cc1cc(OCc2nc(-c3ccc(C(F)(F)F)cc3)c(-c3ccc(OC(F)(F)F)cc3)s2)ccc1OCC(=O)O`, the values for the 50% effective concentration (EC50) in assay [1] (read-out: EC50), in assay [2] and in assay [3] (read-out: EC50) were more than 10 µM, 0.331 µM and more than 10 µM, respectively.

For `COc1ccc(-c2sc(COc3ccc(OCC(=O)O)c(C)c3)nc2-c2ccccc2)cc1`, the figures for the concentration for a half-maximal effect (EC50) in assay [1] (read-out: EC50), in assay [2] and in assay [3] (read-out: EC50) were more than 10 µM, 2.62 µM and more than 10 µM, respectively.

In the case of `Cc1cc(OC/C=C(\C#Cc2ccc(C(F)(F)F)cc2)c2ccc(Br)cc2)ccc1OCC(=O)O`, the concentration giving a half-maximal response (EC50) in assay [1] (read-out: EC50) was more than 10 µM; in assay [2] it was 0.13 µM; in assay [3] (read-out: EC50), more than 10 µM.

Regarding `COc1ccc(-c2nc(COc3ccc(OCC(=O)O)c(C)c3)sc2-c2ccc(SC(F)(F)F)cc2)cc1`, the EC50 in assay [1] (read-out: EC50) is more than 10 µM; in assay [2] it was 0.15 µM; in assay [3] (read-out: EC50), more than 10 µM.

As for `Cc1cc(OCc2nc(-c3ccc(Cl)cc3)cs2)ccc1OCC(=O)O`, the results for the half-maximal effective concentration (EC50) in assay [1] (read-out: EC50), in assay [2] and in assay [3] (read-out: EC50) were more than 10 µM, 4.71 µM and more than 10 µM, respectively.

Take `Cc1cc(OCc2nc(-c3ccc(C(F)(F)F)cc3)c(-c3ccc(C(F)(F)F)cc3)s2)ccc1OCC(=O)O`: the figures for the EC50 in assay [1] (read-out: EC50), in assay [2] and in assay [3] (read-out: EC50) were more than 10 µM, 0.35 µM and more than 10 µM, respectively.

For `COc1ccc(-c2nc(COc3ccc(OCC(=O)O)c(C)c3)sc2/C=C/c2ccccc2)cc1`, the half-maximal effective concentration (EC50) in assay [1] (read-out: EC50) is more than 10 µM; in assay [2] it was 0.11 µM; in assay [3] (read-out: EC50) it was more than 10 µM.
